Experimental findings from ChEMBL document CHEMBL4406816, “Role of sulphur-heterocycles in medicinal chemistry: An update” (Eur J Med Chem, 2019) are described below.

For orientation: IC50 means the concentration at which inhibition is half-maximal. In general, EC50 refers to the concentration at which the effect is half-maximal. A word on the GI50: it is the concentration that inhibits growth by half. What is called inhibition in vivo is the share of the control response that was lost under treatment.

In brackets after ≈: the same amount, converted by molar mass.

One assay relates to RAW264.7. As to the kind of experiment: Anti-inflammatory activity against mouse RAW264.7 cells assessed as inhibition of LPS-induced NO production at 50 ug/ml relative to control. The format is functional. On the set-up: scale not given: the % may be the effect or the level left.
Assay [1] can be described thus: Antioxidant activity assessed as DPPH radical scavenging activity after 30 mins under dark condition. The format is functional. (In general: DPPH is a stable violet radical that fades when it is reduced.)
For a further assay, the system named is Leishmania amazonensis. As to the kind of experiment: Antileishmanial activity against Leishmania amazonensis promastigotes. Type of assay: functional, organism-based.
For a further assay, the system named is Human gammaherpesvirus 4. Put plainly: Antiviral activity against Epstein-Barr virus. The format is functional, organism-based.
Assay [2] concerns MCF7. Put plainly: Growth inhibition of human MCF7 cells after 48 hrs by SRB assay. Type of assay: functional. The settings on record: MCF7, 48 h. Background: The SRB assay estimates cell density from bound dye.
In assay [3] the test system is Rattus norvegicus. Put plainly: Anti-inflammatory activity against carrageenan-induced Albino Wistar rat paw edema model assessed as inhibition of rat paw edema at 10 mg/kg, po pretreated for 1 hr followed by carrageenan addition measured after 1 to 4 hrs relative to control. Type of assay: functional. For orientation: In the carrageenan paw model, swelling and tenderness develop within hours.

The target in assay [4] is Large neutral amino acids transporter small subunit 1 (Homo sapiens, UniProt Q01650). Put plainly: Inhibition of recombinant human LAT1.
Sequence of Large neutral amino acids transporter small subunit 1 (Q01650 whole entry): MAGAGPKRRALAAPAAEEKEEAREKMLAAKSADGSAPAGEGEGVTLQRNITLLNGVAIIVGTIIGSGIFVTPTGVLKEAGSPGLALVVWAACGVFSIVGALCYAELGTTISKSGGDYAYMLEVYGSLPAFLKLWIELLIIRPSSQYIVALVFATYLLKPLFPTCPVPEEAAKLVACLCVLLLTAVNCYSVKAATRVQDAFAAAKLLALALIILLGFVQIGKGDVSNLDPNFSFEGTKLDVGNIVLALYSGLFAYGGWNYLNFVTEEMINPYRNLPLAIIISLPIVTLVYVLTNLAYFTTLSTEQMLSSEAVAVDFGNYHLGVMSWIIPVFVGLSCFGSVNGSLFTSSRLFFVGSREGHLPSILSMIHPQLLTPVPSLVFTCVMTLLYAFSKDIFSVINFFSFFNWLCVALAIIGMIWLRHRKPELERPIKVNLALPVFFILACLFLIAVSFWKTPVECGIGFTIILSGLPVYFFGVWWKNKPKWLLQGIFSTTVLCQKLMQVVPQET
In assay [5] the test system is Feline immunodeficiency virus. Put plainly: Antiviral activity against Feline immunodeficiency virus. Type of assay: functional, organism-based.
Assay [6] relates to MCF7. As to the kind of experiment: Cytotoxicity against human MCF7 cells after 72 hrs by MTT assay. The format is functional, cell-based. The following applies: MCF7, 72 h.
For assay [7], the system named is MCF7. Put plainly: Potency index, ratio of doxorubicin IC50 to compound IC50 for human MCF7 cells. Type of assay: functional.
The next assay concerns HepG2. As to the kind of experiment: Growth inhibition of human HepG2 cells by MTT assay. The format is functional.
The next assay relates to HT-29. Put plainly: Growth inhibition of human HT-29 cells by MTT assay. Type of assay: functional.
For the next assay, the system named is NCI-H460. Put plainly: Growth inhibition of human NCI-H460 cells by MTT assay. Type of assay: functional.
The next assay deals with A-431. Put plainly: Anticancer activity against human A431 cells. The format is functional, cell-based.
A further assay relates to Jurkat. Put plainly: Anticancer activity against human Jurkat cells. The format is functional, cell-based.
A further assay deals with Alpha glucosidase (Homo sapiens, UniProt O43451+P10253+P14410+Q2M2H8). Put plainly: Inhibition of alpha-glucosidase (unknown origin) using p-nitrophenyl alpha-d-glucopyranoside as substrate preincubated for 15 mins followed by substrate addition measured after 30 mins by spectrophotometric analysis. Type of assay: protein assay.
Assay [8] relates to Staphylococcus epidermidis. Put plainly: Antibacterial activity against Staphylococcus epidermidis ATCC 12228 by broth microdilution method. Type of assay: functional.
For assay [9], the system named is Staphylococcus aureus. As to the kind of experiment: Antibacterial activity against Staphylococcus aureus ATCC 25923 by broth microdilution method. The format is functional.
Assay [10] deals with Staphylococcus aureus. As to the kind of experiment: Antibacterial activity against Staphylococcus aureus ATCC 6538 by broth microdilution method. The format is functional.
In assay [11] the target is Peroxisome proliferator-activated receptor gamma (Homo sapiens, UniProt P37231). As to the kind of experiment: Inhibition of PPARgamma (unknown origin).
Sequence of Peroxisome proliferator-activated receptor gamma (P37231 whole entry): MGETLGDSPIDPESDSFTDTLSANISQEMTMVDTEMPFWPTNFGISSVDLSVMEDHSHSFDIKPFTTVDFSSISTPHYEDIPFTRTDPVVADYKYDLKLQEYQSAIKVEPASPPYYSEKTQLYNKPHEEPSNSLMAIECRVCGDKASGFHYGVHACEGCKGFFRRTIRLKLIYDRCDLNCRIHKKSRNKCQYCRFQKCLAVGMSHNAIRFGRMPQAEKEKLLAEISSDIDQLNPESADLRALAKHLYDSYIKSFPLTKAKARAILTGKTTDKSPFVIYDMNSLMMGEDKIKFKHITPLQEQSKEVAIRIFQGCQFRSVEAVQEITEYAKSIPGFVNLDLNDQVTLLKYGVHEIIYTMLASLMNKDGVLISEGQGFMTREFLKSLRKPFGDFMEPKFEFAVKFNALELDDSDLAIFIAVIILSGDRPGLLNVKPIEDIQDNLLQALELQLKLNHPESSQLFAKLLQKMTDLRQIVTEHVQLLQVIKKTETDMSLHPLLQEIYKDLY
For assay [12], the target named is Quinolone resistance protein NorA (Staphylococcus aureus) (UniProt P0A0J7). As to the kind of experiment: Inhibition of NorA in Staphylococcus aureus measured after 1 hr by ethidium bromide staining based agar-cartwheel assay method.
The next assay deals with Pseudomonas aeruginosa. As to the kind of experiment: Antibacterial activity against Pseudomonas aeruginosa. Type of assay: functional, organism-based.
The test system of the next assay is Escherichia coli. Put plainly: Antibacterial activity against Escherichia coli. Type of assay: functional, organism-based.
Another assay has as its system Bacillus subtilis. As to the kind of experiment: Antibacterial activity against Bacillus subtilis. Type of assay: functional, organism-based.
The test system of assay [13] is Staphylococcus aureus. As to the kind of experiment: Antibacterial activity against Staphylococcus aureus. Type of assay: functional, organism-based.
The subject of a further assay is Candida albicans. Put plainly: […] activity against Candida albicans. The format is functional, organism-based.
Assay [14] has as its system Mycobacterium tuberculosis. As to the kind of experiment: Antitubercular activity against Mycobacterium tuberculosis. The format is functional.
In assay [15] the target is Prostaglandin G/H synthase 2 (Homo sapiens, UniProt P35354). As to the kind of experiment: Inhibition of COX2 (unknown origin) by EIA.
Sequence of Prostaglandin G/H synthase 2 (P35354 whole entry): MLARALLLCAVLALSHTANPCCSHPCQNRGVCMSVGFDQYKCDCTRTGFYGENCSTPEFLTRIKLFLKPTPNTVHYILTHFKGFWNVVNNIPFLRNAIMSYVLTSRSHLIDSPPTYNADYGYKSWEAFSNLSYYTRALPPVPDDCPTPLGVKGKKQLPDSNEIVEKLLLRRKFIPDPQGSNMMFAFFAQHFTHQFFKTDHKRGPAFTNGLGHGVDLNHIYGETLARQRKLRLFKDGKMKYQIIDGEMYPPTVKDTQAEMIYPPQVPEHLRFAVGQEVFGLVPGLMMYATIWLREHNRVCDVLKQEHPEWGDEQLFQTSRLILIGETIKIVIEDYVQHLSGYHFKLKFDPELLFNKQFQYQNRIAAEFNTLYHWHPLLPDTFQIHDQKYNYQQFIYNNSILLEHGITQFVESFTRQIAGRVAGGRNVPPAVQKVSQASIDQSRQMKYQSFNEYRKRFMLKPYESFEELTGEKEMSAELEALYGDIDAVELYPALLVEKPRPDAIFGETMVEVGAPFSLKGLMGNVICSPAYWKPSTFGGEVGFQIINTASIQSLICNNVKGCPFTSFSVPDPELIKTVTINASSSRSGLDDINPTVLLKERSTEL
In assay [16] the test system is Rattus norvegicus. Put plainly: Anti-inflammatory activity against carrageenan-induced Albino Wistar rat paw edema model assessed as inhibition of rat paw edema at 50 mg/kg, po after 5 hrs relative to control. The format is functional.
The next assay relates to Streptococcus pneumoniae. Put plainly: Antibacterial activity against Streptococcus pneumoniae. The format is functional.
Another assay deals with Klebsiella pneumoniae. As to the kind of experiment: Antibacterial activity against Klebsiella pneumoniae. The format is functional, organism-based.
A further assay deals with Phytophthora infestans. Put plainly: Antifungal activity Phytophthora infestans. The format is functional, organism-based.
The subject of the next assay is Psilocybe cubensis. Put plainly: Antifungal activity Psilocybe cubensis. The format is functional, organism-based.
Assay [17] addresses 72 kDa type IV collagenase (Homo sapiens, UniProt P08253). Put plainly: Inhibition of MMP2 catalytic domain (unknown origin) using Ac-PLG-[2-mercapto-4-methylpentanoyl]-LG-OC2H5 as substrate preincubated for 45 to 120 mins followed by substrate addition measured for 30 mins in 1 min time interval.
Assay [18] deals with Rattus norvegicus. As to the kind of experiment: Anti-inflammatory activity against carrageenan-induced Albino Wistar rat paw edema model assessed as inhibition of rat paw edema at 50 mg/kg, po pretreated for 1 hr followed by carrageenan addition measured after 1 to 4 hrs relative to control. The format is functional.

Sequence of 72 kDa type IV collagenase (P08253 whole entry, the tested form may be a part): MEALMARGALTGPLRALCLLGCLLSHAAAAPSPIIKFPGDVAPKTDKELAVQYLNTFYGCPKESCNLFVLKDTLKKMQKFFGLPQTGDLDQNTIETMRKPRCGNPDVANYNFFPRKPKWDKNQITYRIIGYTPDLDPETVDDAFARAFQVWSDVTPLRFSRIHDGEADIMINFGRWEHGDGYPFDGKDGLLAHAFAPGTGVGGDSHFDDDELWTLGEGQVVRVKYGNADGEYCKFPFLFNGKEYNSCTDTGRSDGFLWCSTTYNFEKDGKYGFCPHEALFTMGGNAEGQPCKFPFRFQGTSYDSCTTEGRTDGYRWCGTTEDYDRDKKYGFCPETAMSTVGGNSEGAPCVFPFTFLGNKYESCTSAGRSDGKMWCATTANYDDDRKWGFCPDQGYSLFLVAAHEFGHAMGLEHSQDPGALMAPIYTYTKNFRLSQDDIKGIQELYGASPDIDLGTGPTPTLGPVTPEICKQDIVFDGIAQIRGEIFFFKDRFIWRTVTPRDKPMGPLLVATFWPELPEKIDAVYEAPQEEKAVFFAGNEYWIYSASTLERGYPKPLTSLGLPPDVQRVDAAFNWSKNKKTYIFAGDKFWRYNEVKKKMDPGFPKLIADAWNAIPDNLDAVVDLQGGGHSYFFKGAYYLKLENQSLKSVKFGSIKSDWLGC

Take `N#Cc1ccc(/N=N/c2ccc(/C=C3\SC(=O)NC3=O)c(/N=N/c3ccc(C#N)cc3)c2O)cc1`: in the assay with RAW264.7, the Activity turned out to be 60%.
As for `COc1ccc(C2SCC(=O)N2c2ccc3nc(Cc4ccc(O)cc4)c(=O)[nH]c3c2)cc1` (configuration not stated), the IC50 in [1] came out at 19.6 µM.
In turn, `COc1ccc2nc3cc(Cl)ccc3c(Nc3sc4c(c3C#N)CCC4)c2c1` had an IC50 in the assay with Leishmania amazonensis of 9.6 µM.
Take `COc1ccc([C@H]2c3sc(=O)[nH]c3SC[C@H]2C=O)cc1`: in the assay with Human gammaherpesvirus 4, the EC50 is 0.07 µM.
In the case of `N#Cc1ccccc1-c1nnc(-c2ccc(/C=C3\SC(=O)NC3=O)cc2)o1`, the GI50 with MCF7 [2] is 0.004 µM.
Take `COc1ccc2c(c1)c(CC(=O)O)c(C)n2C(=O)c1ccc(Cl)cc1` [INDOMETHACIN]: the inhibition in vivo at 10 mg/kg with Rattus norvegicus [3] was found to be 47.7%.
In the case of `FC(F)(F)Oc1ccc(/N=c2\ssnc2Cl)nc1`, the IC50 in assay [4] came to 0.98 µM.
`S=c1ssnc1-c1ccccc1` gave an EC50 in assay [5] of 0.023 µM.
Consider `N#Cc1c(/N=C/c2cc3cc(Br)ccc3[nH]2)sc2c1CCCCC2`, for which half-maximal inhibition in the assay with MCF7 [6] (IC50) was put at 14.9 µM. Besides, the “Ratio IC50” value in the assay with MCF7 [7] is 3.51.
As to `O=C(O)c1sc(-c2ccc(Cl)cc2)cc1C1C=C(c2ccccc2)c2c1ncn1c(-c3ccc(Cl)cc3)nnc21` (configuration not stated), the GI50 in the assay on HepG2 is 0.02 µM; with HT-29, 0.03 µM; with NCI-H460, 0.05 µM.
On to `COc1cccc2c1C(=O)c1c(O)c3c(c(O)c1C2=O)C[C@@](O)(C(=O)CO)C[C@@H]3O[C@H]1C[C@H](N)[C@H](O)[C@H](C)O1` [DOXORUBICIN], for which the GI50 was 0.04 µM with HepG2, 0.05 µM with HT-29 and 0.09 µM in the assay with NCI-H460. For the same compound, the IC50 was 42.4 µM in the assay on A-431 and 45.9 µM in the assay with Jurkat.
For the compound `COc1ccc(-c2csc(NC(=O)CSc3nnc(-c4ccc(Br)cc4)c(-c4ccc(Br)cc4)n3)n2)cc1`, at Alpha glucosidase, the IC50 worked out at 2.85 µM.
Turning to `O=C(CC1SC(=O)NC1=O)Oc1ccc(/C=C2/SC(=O)NC2=O)cc1Br` (configuration not stated), the MIC in [8] amounted to 7.81 µg/mL (≈ 17.1 µM); with Staphylococcus aureus [9] it was 3.91 µg/mL (≈ 8.55 µM); in the assay with Staphylococcus aureus [10] it was 3.91 µg/mL (≈ 8.55 µM).
Compound `CCCCNC(=O)CN1C(=O)S/C(=C/c2ccc(Cl)cc2)C1=O` yielded an EC50 in [11] of 5.9 µM.
As for `O=C(Nc1nc(=S)ss1)c1ccc(Cl)cc1`, in [12], the MIC came out at 0.5 µg/mL (≈ 1.73 µM).
On to `O=C(N[C@H](CO)[C@H](O)c1ccc([N+](=O)[O-])cc1)C(Cl)Cl` [CHLORAMPHENICOL], for which the IC50 with Pseudomonas aeruginosa (Pseudomonas aeruginosa), with Escherichia coli (Escherichia coli), with Bacillus subtilis (Bacillus subtilis), with Staphylococcus aureus [13] (Staphylococcus aureus) and in the assay on Candida albicans (Candida albicans) was 22.5 µM throughout.
On to `Fc1ccc(-c2cn(Cc3csc(-c4ccccc4)n3)nn2)cc1`, for which, in assay [14], the MIC amounted to 8.99 µg/mL (≈ 26.7 µM).
For the compound `Cc1ccc(Nc2nc(N(C)C)c(C#N)s2)cc1C`, the IC50 in the assay on A-431 was 34.3 to 34.8 µM; in the assay on Jurkat, 34.8 µM.
With `COc1ccc(-c2nn(-c3ccc(S(C)(=O)=O)cc3)cc2/C=C2\SC(=O)NC2=O)cc1`, half-maximal inhibition in assay [15] (IC50) required 0.88 µM. Besides, the inhibition in vivo at 50 mg/kg in the assay on Rattus norvegicus [16] was found to be 80.2%.
On to `CC1(C)S[C@@H]2[C@H](NC(=O)[C@H](N)c3ccccc3)C(=O)N2[C@H]1C(=O)O` [AMPICILLIN], for which the MIC against Streptococcus pneumoniae was determined as 0.03 µg/mL (≈ 0.0859 µM).
With NYSTATIN, the IC50 in the assay on Pseudomonas aeruginosa, with Escherichia coli, with Bacillus subtilis, with Staphylococcus aureus [13] and in the assay on Candida albicans was 7.3 µM throughout.
Consider `O=C1O[C@H]([C@@H](O)CO)C(O)=C1O` [ASCORBIC ACID], for which the IC50 in assay [1] came out at 16.9 µM.
As to GENTAMICIN, the MIC against Klebsiella pneumoniae turned out to be 0.03 µg/mL.
`C=CCNc1nc(C)c(C2=NN(C(N)=S)[C@H](c3ccc(Cl)cc3)C2)s1` showed an MIC against Streptococcus pneumoniae of 0.12 µg/mL (≈ 0.306 µM).
Consider `O=C(c1cccc(Br)c1)N1CCC(c2cc(-c3snc(Cl)c3Cl)ns2)CC1`, for which the figures for the concentration for a half-maximal effect (EC50) in the assay on Phytophthora infestans and in the assay with Psilocybe cubensis were 0.27 µg/mL (≈ 0.536 µM) and 0.046 µg/mL (≈ 0.0914 µM), respectively.
For the compound `O=S(=O)(CC1CS1)c1ccc(-n2cc(-c3ccc(-c4ccncc4)cc3)nn2)cc1` (configuration not stated), the IC50 in assay [17] was determined as 0.62 µM.
On to `N#Cc1c(-c2ccc(N3CCOCC3)cc2)csc1NC(=O)CN1CCOCC1`, for which, in the assay on Rattus norvegicus [18], the inhibition in vivo at 50 mg/kg worked out at 58.5%.
